In US20250120967A1, “TYROSINE KINASES INHIBITORS AND USES THEREOF” (GREAT NOVEL THERAPEUTICS BIOTECH & MEDICALS CORPORATION, priority 2023, published 2025):

Columns and labels:
Test in all cases: Tyrosine kinase inhibition assay
Type in all cases: biochemical
DDR2 = molecular target: T1, DDR2 (Homo sapiens, UniProt Q16832); settings: single concentration 1.0 μM, read-out: percent inhibition
T1 sequence (Q16832 22-855): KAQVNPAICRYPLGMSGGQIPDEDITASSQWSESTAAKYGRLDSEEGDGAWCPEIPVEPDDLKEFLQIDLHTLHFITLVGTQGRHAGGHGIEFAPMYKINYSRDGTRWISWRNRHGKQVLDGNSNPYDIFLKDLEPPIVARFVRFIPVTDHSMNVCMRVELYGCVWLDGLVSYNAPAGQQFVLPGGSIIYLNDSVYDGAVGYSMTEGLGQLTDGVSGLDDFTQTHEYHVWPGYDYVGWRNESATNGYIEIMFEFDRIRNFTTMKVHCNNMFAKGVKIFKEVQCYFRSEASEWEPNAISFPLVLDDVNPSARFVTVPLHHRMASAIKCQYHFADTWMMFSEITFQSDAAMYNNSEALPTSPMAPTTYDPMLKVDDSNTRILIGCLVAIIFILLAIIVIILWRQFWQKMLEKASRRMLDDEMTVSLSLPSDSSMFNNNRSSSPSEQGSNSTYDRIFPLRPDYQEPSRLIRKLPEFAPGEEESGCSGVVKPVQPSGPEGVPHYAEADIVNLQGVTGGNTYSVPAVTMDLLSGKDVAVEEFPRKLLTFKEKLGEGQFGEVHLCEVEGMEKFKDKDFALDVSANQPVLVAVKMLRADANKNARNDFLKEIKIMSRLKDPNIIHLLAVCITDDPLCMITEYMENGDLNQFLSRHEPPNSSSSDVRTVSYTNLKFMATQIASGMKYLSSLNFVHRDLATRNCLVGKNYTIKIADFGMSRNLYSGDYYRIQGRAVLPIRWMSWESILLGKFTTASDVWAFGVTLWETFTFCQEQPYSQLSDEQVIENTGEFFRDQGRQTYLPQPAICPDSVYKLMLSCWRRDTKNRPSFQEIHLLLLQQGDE
In short: (§1)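 Single-point screen, 1.0 μM compound, 1% DMSO final; ATP at apparent Km. Buffer: 50 mM HEPES pH 7.5, 0.01% BRIJ-35, 10 mM MgCl2, 1 mM EGTA. Z′-LYTE readout, % inhibition; hit = >80%.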

EPHA6 = molecular target: T2, EPHA6 (Homo sapiens, UniProt Q9UF33); settings: single concentration 1.0 μM, read-out: percent inhibition
T2 sequence (Q9UF33 23-1036): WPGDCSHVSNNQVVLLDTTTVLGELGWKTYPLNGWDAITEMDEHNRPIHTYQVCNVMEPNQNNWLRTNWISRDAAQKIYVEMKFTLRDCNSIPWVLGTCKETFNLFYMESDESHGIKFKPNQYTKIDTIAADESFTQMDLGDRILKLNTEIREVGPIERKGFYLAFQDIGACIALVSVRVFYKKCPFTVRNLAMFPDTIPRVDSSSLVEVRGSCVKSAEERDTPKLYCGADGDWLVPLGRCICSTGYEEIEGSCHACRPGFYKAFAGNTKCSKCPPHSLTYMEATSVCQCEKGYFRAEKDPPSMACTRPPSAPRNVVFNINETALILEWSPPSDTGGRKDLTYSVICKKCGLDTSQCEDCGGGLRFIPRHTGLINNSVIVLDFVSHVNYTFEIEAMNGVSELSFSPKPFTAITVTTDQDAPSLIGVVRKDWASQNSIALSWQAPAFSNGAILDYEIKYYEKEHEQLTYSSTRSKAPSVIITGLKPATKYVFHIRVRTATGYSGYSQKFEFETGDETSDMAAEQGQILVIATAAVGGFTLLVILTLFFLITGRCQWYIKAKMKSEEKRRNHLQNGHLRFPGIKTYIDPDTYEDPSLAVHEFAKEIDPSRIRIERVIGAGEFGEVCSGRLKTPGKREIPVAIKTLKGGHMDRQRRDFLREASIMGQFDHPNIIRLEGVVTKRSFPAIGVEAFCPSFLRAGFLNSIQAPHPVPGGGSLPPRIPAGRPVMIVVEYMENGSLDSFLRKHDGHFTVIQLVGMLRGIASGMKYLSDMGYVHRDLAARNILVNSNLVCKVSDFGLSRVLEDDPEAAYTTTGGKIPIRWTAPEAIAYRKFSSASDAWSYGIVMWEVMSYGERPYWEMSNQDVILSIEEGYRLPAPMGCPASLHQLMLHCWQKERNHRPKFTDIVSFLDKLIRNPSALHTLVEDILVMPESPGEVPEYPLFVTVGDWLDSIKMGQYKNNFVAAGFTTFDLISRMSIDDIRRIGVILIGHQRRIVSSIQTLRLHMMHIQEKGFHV
In short: as §1

ERBB4 (HER4) = ERBB4 (HER4) (Homo sapiens, UniProt Q15303); settings: single concentration 1.0 μM, read-out: percent inhibition
In short: as §1

FGFR3 = FGFR3 (Homo sapiens, UniProt P22607); settings: single concentration 1.0 μM, read-out: percent inhibition
In short: as §1

FYN = settings: single concentration 1.0 μM
In short: as §1

JAK2 = JAK2 (Homo sapiens, UniProt O60674); settings: single concentration 1.0 μM, read-out: percent inhibition
In short: as §1

PTK2B (FAK2) = PTK2B (FAK2) (Homo sapiens, UniProt Q14289); settings: single concentration 1.0 μM, read-out: percent inhibition
In short: as §1

PTK6 (Brk) = PTK6 (Brk) (Homo sapiens, UniProt Q13882); settings: single concentration 1.0 μM, read-out: percent inhibition
In short: as §1

Sequence of FGFR3 (P22607 23-806): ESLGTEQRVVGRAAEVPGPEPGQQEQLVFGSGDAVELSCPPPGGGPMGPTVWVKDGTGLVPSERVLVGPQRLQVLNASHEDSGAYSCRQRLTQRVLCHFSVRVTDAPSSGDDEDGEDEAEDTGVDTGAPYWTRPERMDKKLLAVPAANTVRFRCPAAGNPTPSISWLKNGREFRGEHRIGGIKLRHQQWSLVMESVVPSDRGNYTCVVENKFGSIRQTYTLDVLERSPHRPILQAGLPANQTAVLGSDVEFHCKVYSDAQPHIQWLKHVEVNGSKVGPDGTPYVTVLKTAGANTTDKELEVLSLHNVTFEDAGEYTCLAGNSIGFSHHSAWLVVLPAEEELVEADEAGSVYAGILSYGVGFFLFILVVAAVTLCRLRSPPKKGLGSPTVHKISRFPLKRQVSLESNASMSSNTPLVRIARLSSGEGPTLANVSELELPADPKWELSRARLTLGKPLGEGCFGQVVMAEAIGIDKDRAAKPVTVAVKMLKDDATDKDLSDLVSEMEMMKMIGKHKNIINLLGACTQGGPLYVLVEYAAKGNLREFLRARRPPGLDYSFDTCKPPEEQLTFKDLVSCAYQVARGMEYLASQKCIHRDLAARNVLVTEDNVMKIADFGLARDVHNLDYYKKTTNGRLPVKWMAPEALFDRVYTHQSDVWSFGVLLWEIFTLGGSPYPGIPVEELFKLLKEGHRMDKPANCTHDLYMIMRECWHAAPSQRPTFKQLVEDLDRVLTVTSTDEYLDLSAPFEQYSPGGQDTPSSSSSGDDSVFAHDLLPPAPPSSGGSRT
Sequence of PTK6 (Brk) (Q13882 whole entry): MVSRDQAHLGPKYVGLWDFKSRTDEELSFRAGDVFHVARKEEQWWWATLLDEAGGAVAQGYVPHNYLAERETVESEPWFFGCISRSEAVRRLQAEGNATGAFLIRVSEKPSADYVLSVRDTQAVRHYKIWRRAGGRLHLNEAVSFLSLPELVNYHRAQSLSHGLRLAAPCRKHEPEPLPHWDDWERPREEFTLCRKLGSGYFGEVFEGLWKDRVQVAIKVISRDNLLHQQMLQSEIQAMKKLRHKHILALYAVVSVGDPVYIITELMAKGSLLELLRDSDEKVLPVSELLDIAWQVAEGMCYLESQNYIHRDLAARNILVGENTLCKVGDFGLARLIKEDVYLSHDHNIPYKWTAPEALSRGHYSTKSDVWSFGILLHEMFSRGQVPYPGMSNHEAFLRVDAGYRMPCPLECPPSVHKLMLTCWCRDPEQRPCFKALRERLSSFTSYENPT
Sequence of ERBB4 (HER4) (Q15303 26-1308): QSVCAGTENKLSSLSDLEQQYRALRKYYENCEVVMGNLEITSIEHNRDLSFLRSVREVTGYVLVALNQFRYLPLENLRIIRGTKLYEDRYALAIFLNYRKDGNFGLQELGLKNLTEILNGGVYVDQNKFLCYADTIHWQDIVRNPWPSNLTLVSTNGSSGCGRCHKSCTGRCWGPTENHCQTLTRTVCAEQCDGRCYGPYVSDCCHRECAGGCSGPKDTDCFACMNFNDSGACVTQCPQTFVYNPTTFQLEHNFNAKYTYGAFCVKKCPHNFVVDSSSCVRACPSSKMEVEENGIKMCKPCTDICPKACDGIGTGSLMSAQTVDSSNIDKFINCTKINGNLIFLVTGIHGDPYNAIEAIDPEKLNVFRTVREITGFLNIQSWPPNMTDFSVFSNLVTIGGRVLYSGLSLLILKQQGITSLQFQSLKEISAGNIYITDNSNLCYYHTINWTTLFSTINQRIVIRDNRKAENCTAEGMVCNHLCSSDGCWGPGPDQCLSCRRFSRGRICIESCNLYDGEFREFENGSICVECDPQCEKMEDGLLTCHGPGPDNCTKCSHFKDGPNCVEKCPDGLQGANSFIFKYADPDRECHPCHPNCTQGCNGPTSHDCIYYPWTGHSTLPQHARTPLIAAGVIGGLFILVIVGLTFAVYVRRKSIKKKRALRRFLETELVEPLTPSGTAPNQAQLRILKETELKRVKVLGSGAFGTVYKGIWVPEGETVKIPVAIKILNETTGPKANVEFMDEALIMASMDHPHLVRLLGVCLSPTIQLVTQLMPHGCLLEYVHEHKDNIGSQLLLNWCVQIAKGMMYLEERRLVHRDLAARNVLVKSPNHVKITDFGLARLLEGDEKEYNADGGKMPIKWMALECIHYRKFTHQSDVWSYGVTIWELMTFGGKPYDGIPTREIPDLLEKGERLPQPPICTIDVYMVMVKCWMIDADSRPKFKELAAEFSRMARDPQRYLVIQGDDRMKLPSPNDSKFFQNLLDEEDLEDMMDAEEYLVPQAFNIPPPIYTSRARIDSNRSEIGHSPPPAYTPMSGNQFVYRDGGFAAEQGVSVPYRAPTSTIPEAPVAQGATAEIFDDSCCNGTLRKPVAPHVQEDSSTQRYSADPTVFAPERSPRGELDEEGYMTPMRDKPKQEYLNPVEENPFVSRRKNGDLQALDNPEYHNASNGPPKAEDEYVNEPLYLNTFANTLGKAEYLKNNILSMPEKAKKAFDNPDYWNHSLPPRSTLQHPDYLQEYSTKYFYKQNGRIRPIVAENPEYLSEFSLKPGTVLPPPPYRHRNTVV
Sequence of PTK2B (FAK2) (Q14289 whole entry): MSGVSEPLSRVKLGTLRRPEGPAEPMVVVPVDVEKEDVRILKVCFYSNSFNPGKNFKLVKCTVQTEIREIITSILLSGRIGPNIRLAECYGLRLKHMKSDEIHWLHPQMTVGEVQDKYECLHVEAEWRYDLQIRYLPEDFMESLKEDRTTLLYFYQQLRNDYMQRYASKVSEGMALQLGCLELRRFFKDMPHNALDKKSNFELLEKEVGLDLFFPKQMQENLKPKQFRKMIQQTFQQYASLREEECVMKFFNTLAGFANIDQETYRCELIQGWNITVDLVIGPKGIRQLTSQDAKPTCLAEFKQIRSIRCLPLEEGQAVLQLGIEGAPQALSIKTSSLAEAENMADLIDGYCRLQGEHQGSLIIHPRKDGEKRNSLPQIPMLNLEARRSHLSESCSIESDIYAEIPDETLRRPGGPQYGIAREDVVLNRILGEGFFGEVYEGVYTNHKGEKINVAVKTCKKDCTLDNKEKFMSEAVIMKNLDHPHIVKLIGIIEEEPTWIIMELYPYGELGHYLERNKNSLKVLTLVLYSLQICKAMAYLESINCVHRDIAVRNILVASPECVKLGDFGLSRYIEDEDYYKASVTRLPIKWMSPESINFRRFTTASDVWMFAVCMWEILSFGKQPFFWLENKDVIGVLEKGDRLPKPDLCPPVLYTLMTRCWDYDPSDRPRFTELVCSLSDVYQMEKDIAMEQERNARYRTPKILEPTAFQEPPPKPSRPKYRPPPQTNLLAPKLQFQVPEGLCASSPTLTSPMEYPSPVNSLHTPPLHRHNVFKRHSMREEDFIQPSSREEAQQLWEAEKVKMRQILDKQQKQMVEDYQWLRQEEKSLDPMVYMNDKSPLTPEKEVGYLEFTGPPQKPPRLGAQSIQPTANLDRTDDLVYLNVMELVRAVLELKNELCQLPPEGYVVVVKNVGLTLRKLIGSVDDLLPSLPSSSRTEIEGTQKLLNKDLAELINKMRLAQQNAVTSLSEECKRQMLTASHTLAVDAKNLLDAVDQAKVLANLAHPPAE
Sequence of JAK2 (O60674 whole entry): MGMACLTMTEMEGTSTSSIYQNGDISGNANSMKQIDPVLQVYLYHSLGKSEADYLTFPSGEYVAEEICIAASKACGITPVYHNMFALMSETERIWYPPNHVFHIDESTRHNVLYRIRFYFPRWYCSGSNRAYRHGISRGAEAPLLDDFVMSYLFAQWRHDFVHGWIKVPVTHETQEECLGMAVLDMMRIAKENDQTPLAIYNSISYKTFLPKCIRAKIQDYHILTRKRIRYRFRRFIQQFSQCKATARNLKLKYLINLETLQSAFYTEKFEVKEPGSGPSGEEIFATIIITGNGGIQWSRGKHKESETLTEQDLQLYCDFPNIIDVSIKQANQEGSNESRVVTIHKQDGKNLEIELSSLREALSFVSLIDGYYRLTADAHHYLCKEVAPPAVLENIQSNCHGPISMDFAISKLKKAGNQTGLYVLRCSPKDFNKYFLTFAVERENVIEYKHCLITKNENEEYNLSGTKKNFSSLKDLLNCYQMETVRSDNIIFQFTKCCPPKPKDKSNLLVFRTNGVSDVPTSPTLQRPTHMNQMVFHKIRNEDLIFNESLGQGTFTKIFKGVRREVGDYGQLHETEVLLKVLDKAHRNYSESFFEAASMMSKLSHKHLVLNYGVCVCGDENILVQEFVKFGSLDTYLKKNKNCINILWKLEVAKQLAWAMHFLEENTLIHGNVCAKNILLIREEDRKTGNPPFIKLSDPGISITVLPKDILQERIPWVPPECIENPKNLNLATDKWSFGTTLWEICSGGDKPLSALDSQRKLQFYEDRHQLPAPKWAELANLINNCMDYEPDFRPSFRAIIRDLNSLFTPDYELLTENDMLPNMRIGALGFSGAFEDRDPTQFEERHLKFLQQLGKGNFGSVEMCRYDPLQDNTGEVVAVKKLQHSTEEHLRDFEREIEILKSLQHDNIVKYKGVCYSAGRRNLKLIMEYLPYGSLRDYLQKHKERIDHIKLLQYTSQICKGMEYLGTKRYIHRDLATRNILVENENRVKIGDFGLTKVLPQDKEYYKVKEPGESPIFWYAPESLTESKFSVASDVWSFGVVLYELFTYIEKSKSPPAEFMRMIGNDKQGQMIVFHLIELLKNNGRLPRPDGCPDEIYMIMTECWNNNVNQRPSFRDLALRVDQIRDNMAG

Row | Compound | inhibition at 1 µM (DDR2) [%] | inhibition at 1 µM (EPHA6) [%] | inhibition at 1 µM (ERBB4 (HER4)) [%] | inhibition at 1 µM (FGFR3) [%] | percent inhibition (FYN) [%] | inhibition at 1 µM (JAK2) [%] | inhibition at 1 µM (PTK2B (FAK2)) [%] | inhibition at 1 µM (PTK6 (Brk)) [%]
1 | COc1cc2nccc(Oc3ccc(NC(=O)C4(C(=O)Nc5ccc(F)cc5)CC4)cc3F)c2cc1Oc1ccc(N)cc1F [Cbo-23] | 91 | 100 | 72 | 13 | 51 | 58 | 100 | 97
2 | COc1cc2nccc(Oc3ccc(NC(=O)C4(NC(=O)c5ccc(F)cc5)CC4)cc3F)c2cc1Oc1ccc(N)cc1F [Cbo-10] | 51 | 94 | 94 | 19 | 35 | -1 | 56 | 91
3 | COc1cc2nccc(Oc3ccc(NC(=O)C4(NC(=O)c5ccc(F)cc5)CC4)cc3F)c2cc1OC [Cbo-02, N-(1-((4-((6,7-diMethoxyquinolin-4-yl)oxy)-3-fluorophenyl)carbamoyl)cyclopropyl)-4-fluorobenzamide] | 32 | 75 | 31 | 4 | 16 | 6 | 9 | 73
4 | COc1cc2nccc(Oc3ccc(NC(=O)C4(NC(=O)c5ccc(F)cc5)CC4)cc3F)c2cc1Oc1c(F)cc(N)cc1F [Cbo-14] | 60 | 96 | 93 | 19 | 48 | 1 | 54 | 94
5 | COc1cc2nccc(Oc3ccc(NC(=O)C4(C(=O)Nc5ccc(F)cc5)CC4)cc3)c2cc1OC [Cabozantinib, reference compound] | 100 | 103 | 35 | 16 | – | 24 | 71 | 103
